From ChEMBL document CHEMBL1140704, “Further structure-activity relationships study of hybrid 7-{[2-(4-phenylpiperazin-1-yl)ethyl]propylamino}-5,6,7,8-tetrahydronaphthalen-2-ol analogues: identification of a high-affinity D3-preferring agonist with potent in vivo activity with long duration of action” (J Med Chem, 2008)
The source made the active and inactive calls. The calls are words filed in the database; no cut-off is given here.

Legend:
D(2) dopamine receptor [1] = biological target: T1, D(2) dopamine receptor (Homo sapiens, UniProt P14416); assay: biochemical
T1 sequence (P14416 whole entry): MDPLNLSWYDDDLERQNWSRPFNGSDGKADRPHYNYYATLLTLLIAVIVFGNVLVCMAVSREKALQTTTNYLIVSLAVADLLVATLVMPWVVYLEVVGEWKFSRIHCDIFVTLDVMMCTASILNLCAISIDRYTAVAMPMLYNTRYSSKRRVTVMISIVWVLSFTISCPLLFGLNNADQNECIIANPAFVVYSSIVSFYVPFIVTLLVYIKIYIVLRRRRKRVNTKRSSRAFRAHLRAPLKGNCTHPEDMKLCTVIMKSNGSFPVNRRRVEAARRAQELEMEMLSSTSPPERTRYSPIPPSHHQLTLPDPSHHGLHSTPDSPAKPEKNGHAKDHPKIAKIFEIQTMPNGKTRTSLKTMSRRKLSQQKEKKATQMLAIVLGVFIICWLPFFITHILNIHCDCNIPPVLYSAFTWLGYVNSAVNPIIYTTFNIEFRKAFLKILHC
Description: Displacement of [3H]spiperone from human cloned dopamine D2L receptor expressed in HEK293 cells

D(3) dopamine receptor [2] = biological target: T2, D(3) dopamine receptor (Homo sapiens, UniProt P35462); assay: biochemical
T2 sequence (P35462 whole entry): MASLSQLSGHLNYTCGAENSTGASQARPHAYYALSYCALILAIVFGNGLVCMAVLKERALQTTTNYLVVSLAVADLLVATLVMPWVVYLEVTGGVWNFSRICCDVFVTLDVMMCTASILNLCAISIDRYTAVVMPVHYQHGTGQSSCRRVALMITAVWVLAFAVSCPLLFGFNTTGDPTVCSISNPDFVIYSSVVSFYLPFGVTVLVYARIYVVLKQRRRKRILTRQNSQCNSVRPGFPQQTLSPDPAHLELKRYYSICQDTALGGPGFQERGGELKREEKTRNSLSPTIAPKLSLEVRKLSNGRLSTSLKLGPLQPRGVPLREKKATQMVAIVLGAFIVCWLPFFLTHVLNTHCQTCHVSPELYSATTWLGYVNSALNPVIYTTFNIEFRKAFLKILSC
Description: Displacement of [3H]spiperone from human cloned dopamine D3 receptor expressed in HEK293 cells

Homo sapiens = organism: Homo sapiens; assay: Selectivity for human D3 receptor over human D2L receptor
Rattus norvegicus [3] = assay: Effect on rotational activity in 6-OH-DA-Lesioned rat assessed as number of rotations at 2.87 mg/kg, ip after 12 hrs; assay type: functional; conditions: route intraperitoneal
Rattus norvegicus [4] = assay: Effect on rotational activity in 6-OH-DA-Lesioned rat assessed as number of rotations at 0.53 mg/kg, ip after 9 hrs; assay type: functional; conditions: route intraperitoneal
Rattus norvegicus [5] = assay: Effect on rotational activity in 6-OH-DA-Lesioned rat assessed as number of rotations at 2.51 mg/kg, ip; assay type: functional, organism-based; set-up: dose 2.51 mg/kg
D(2) dopamine receptor [6] = biological target: T1, D(2) dopamine receptor; assay: Agonist activity at human cloned dopamine D2L receptor expressed in CHO cells assessed as stimulation of [35S]GTPgammaS binding; assay type: functional, cell-based
D(3) dopamine receptor [7] = biological target: T2, D(3) dopamine receptor
Description: Agonist activity at human cloned dopamine D3 receptor expressed in AtT-20 cells assessed as stimulation of [35S]GTP-gamma-S binding

Structure (SMILES) | Ki (D(2) dopamine receptor [1]) [nM] | Ki (D(3) dopamine receptor [2]) [nM] | Ratio Ki (Homo sapiens) | other results
CCCN(CCN1CCN(c2ccccc2)CC1)C1CCc2ccc(N)cc2C1 (stereo not given) | 638 | 22.2 | – | –
CCCN(CCCN1CCN(c2ccccc2)CC1)C1CCc2ccc(O)cc2C1 (stereo not given) | 167 | 10.3 | 16.2 | –
CCCN(CCN1CCN(c2ccccc2OC)CC1)C1CCc2c(O)cccc2C1 (racemic) [listing 1 of 2 here] | 35.8 | 2.8 | – | –
CCCN(CCCCN1CCN(c2ccccc2)CC1)C1CCc2ccc(O)cc2C1 (stereo in doubt; (+)-13) [listing 1 of 2 here] | 19.3 | 0.74 | – | –
CCCN(CCN1CCN(c2ccccc2)CC1)C1CCc2c(O)cccc2C1 (stereo in doubt; (-)-25) | – | – | – | Activity (Rattus norvegicus [3]): 4319; Activity (Rattus norvegicus [4]): 3609
CCCN(CCN1CCN(c2ccccc2OC)CC1)C1CCc2c(O)cccc2C1 (single isomer, unassigned; (+)) [listing 1 of 2 here] | 88.7 | 18.8 | – | –
CCCN(CCCCN1CCN(c2ccccc2)CC1)C1CCc2ccc(O)cc2C1 (stereo in doubt; (+)-13) [listing 2 of 2 here] | – | – | 25.8 | –
CCCN(CCN1CCN(c2cccc(Cl)c2Cl)CC1)C1CCc2c(O)cccc2C1 (racemic) | 14.6 | 0.45 | 32.2 | –
CCCN(CCN1CCN(c2ccccc2)CC1)C1CCc2cc(O)ccc2C1 (stereo not given) | 649 | 11.2 | 57.9 | –
CCCN(CCCCN1CCN(c2ccccc2)CC1)C1CCc2ccc(O)cc2C1 (stereo in doubt; (-)-13) [listing 1 of 2 here] | – | – | 15.9 | –
CCCN(CCN1CCN(c2ccccc2)CC1)C1CCc2ccc(O)cc2C1 (stereo not given) | 142 | 1.56 | 91 | Activity (Rattus norvegicus [5]): Active; EC50 (D(2) dopamine receptor [6]): 12.2 nM; Ratio EC50 (Homo sapiens): 17.6; EC50 (D(3) dopamine receptor [7]): 0.69 nM
CCCN(CCN1CCN(c2ccccc2OC)CC1)C1CCc2c(O)cccc2C1 (single isomer, unassigned; (-)) [listing 1 of 2 here] | – | – | 20.9 | Ratio EC50 (Homo sapiens): 19.4
CCCN(CCN1CCN(c2ccccc2OC)CC1)C1CCc2c(O)cccc2C1 (single isomer, unassigned; (-)) [listing 2 of 2 here] | 9.56 | 0.46 | – | EC50 (D(2) dopamine receptor [6]): 1.56 nM; EC50 (D(3) dopamine receptor [7]): 0.08 nM
CCCN(CCN1CCN(c2ccccc2OC)CC1)C1CCc2c(O)cccc2C1 (single isomer, unassigned; (+)) [listing 2 of 2 here] | – | – | 4.72 | –
CCCN(CCN1CCN(c2ccccc2)CC1)C1CCc2ccc3c(c2C1)CC(=O)N3 (stereo not given) | 90.6 | 10.9 | 8.27 | –
CCCN(CCN1CCN(c2ccccc2OC)CC1)C1CCc2c(O)cccc2C1 (racemic) [listing 2 of 2 here] | – | – | 12.8 | –
CCCN(CCN1CCN(c2ccccc2)CC1)C1CCc2cc(O)c(O)cc2C1 (stereo not given) | 70.3 | 1.39 | 50.6 | –
CCCN(CCCCN1CCN(c2ccccc2)CC1)C1CCc2cc(O)c(O)cc2C1 (stereo not given) | 21.7 | 2.89 | 7.51 | –
Oc1ccc2c(c1)CC(N(CCc1cccs1)CCN1CCN(c3ccccc3)CC1)CC2 (stereo not given) | 24.6 | 23.9 | 1.03 | –
CCCN(CCCCN1CCN(c2ccccc2)CC1)C1CCc2ccc(O)cc2C1 (stereo in doubt; (-)-13) [listing 2 of 2 here] | 19.4 | 1.22 | – | –
